Drawing on patent publication US4552969A, “3-Alkanoyl benzothiazoline compounds useful for treating cardiovascular disease” (Santen Pharmaceutical Co., Ltd., priority 1981, dated 1985), this text covers IC50 and LD50 for eleven molecules.

Data set [1] deals with platelet aggregation. Put plainly: Pharmacological test II: anti-aggregatory activity, collagen or ADP induced platelet aggregation in vitro (platelet rich plasma). Type of data set: cell-based. Particulars: Oryctolagus cuniculus, 50% inhibition of control response, rabbit PRP, 1 minute preincubation at 37° C., collagen (3 μg/ml) or ADP (3 μM), inducer not given. The source says:
Blood platelet plays an important role only in hemostasis but also in thrombosis. Platelet hyperaggregability leads to an inclease in the number of circulating platelet aggregates, which may contribute toward the development of cardiac arrythmias, cardiac arrest or myocardial infarction. These cardiovascular diseases can be prevented by inhibition of platelet aggregation.
Blood was obtained from an anesthetized rabbit using 0.1 volumes of 3.8% sodium citrate as anticoagulant. Platelet rich plasma(PRP) was isolated by centrifugation at 650 rpm for 10 minutes at room temperature. After preincubation of PRP (0.25 ml) with various concentrations of test compounds (14 μl) for 1 minute at 37° C., collagen (3 μg/ml:final concentration) or ADP (3 μM:final concentration) was added to induce aggregation and the aggregation profiles were monitored with RIKADENKI six-channel aggregometer. The control experiment contained saline instead of test compound.
The anti-aggregatory activity was represented by the concentration of test compound which elicited 50% inhibition of control response.

Data set [2] can be described thus: Acute toxicity test, oral. Particulars: rat, in vivo, male ddy-SLC, 0.5% tragacanth suspension. Here is the method: Male ddy-SLC strain rats (4 weeks of age, weighing 19-21 g) were placed in a breeding room of constant temperature and huminity (23±1° C., 55±5%) and fed freely pellet diet and water ad. libitum for a week. Rats showing normal growth were selected for the test.
Test compounds are suspended in 0.5% tragacanth suspention and administered orally in a dose of 0.5 ml/20 g body weight.

Data set [3] concerns guinea-pig teania coli. Put plainly: Pharmacological test I: calcium-antagonistic activity, inhibition of Ca++-evoked contraction of isolated taenia coli. In kind it is cell-based. Particulars: Cavia porcellus, 5 min; 50% inhibition of contraction evoked by CaCl2 (3×10^-4 M); Ca++-free-high-K Krebs solution, 32° C., 5 minutes pre-exposure. How it is done: The action potentials on the smooth muscles of uterus, teania coli and portal vein are dependent on calcium ion, and therefor these smooth muscle preparations are useful for screening of calcium antagonists. We measured the calcium-antagonistic activity of the compounds by the method using guinea-pig teania coli preparation.
Isolated guinea-pig teania coil was suspended in a 20 ml organ bath with Krebs solution at 32° C. and bubbled with 5% carbon dioxide in oxygen. After equilibration, the muscle was washed with Ca^++ -free Krebs solution, and when the muscle had relaxed to basal level, it was suspended in Ca^++ -free-high-K Krebs solution.
The muscle was exposed to test compounds for 5 minutes before addition of CaCl2, and the contraction evoked by CaCl2 (3×10^-4 M) was recorded isotonically. The calcium-antagonistic activity was represented by the concentration of test compound which elicited 50% inhibition of Ca^++ -evoked contraction (IC50).

Structures are written as SMILES. pIC50: −log10 of the molar value. Counter-ions that a name gives are not always drawn.

In data set [1], `CC(=O)N1c2ccccc2SC1c1cc([N+](=O)[O-])ccc1OCCCN1CCC(Cc2ccccc2)CC1` (centres unmarked) [Compound 95] gave a pIC50 of 5.57.
On the same count and under the same terms, the value for `COc1cc(C2Sc3ccccc3N2C(C)=O)cc(OC)c1OCCCN(C)C1CCCCC1` (centres unmarked) [Compound 54] was 5.51.
`CC(=O)N1c2ccccc2SC1c1cc([N+](=O)[O-])ccc1OCCCN(C)C1CCCCC1` (centres unmarked) [Compound 29] showed a pIC50 in data set [1] of 5.49. Also, the LD50 in data set [2] was more than 2000 mg/kg.
Regarding `COc1cc(C2Sc3ccccc3N2C(C)=O)cc(OC)c1OCCCCN(C)C1CCCCC1` (centres unmarked) [Compound 55], the pIC50 in data set [1] is 5.70.
Consider `CC(=O)N1c2ccccc2SC1c1cc([N+](=O)[O-])ccc1OCCCNCc1cccnc1` (centres unmarked) [Compound 33], for which, in data set [3], the pIC50 is 6.28.
`COc1ccc(OCCCCN(C)CCc2ccc(OC)c(OC)c2)c(C2Sc3ccccc3N2C(C)=O)c1` (centres unmarked) [Compound 23]: the pIC50 in data set [3] is 6.18.
With `COc1ccc(OCCCCN2CCN(CCc3cc(OC)c(OC)c(OC)c3)CC2)c(C2Sc3ccccc3N2C(C)=O)c1` (centres unmarked) [Compound 67], the pIC50 in data set [3] is 6.33. In data set [2], this molecule yielded an LD50 of more than 1000 mg/kg.
`CC(=O)N1c2ccccc2SC1c1ccccc1OCCCN(C)C1CCCCC1` (centres unmarked) [Compound 8] showed a pIC50 in data set [1] of 5.34.
The same measure, in the same setting: for `COc1ccc(OCCCCCCN(C)C2CCCCC2)c(C2Sc3ccccc3N2C(C)=O)c1` (centres unmarked) [Compound 22] the value was 5.96.
Take `COc1ccc(OCCCCN2CCN(CCc3ccc(OC)c(OC)c3)CC2)c(C2Sc3ccccc3N2C(C)=O)c1` (centres unmarked) [Compound 63]: the pIC50 in data set [3] was 6.19. This molecule also returned a median lethal dose (LD50) in data set [2] not below 3000 mg/kg.
`COc1ccc(OCCCCCN(C)C2CCCCC2)c(C2Sc3ccccc3N2C(C)=O)c1` (centres unmarked) [Compound 21, 3-Acetyl-2-[2-[5-(N-cyclohexyl-N-methlamino)pentyloxy]-5-methoxyphenyl]benzothiazoline fumarate] had a pIC50 in data set [1] of 5.89.
